{"source": "patent US20150010928A1", "about": "“MEANS AND METHODS FOR ASSESSING AN ENDOCRINE DISEASE OR DISORDER” (priority 2012, published 2015)", "system": "male rats", "assay": "Plasma metabolite profiling (GC-MS, LC-MS, SPE-LC-MS) in male rats dosed once daily over 28 days (OECD 407)", "assay_type": "in vivo, rat", "settings": "high dose; for Mannose: Table 15c", "outline": "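Polar and lipid fractions profiled by GC-MS and LC-MS/MRM, steroids by online SPE-LC-MS; pool-normalized data compared to controls by Welch test as treatment ratios and p-values.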", "note": "Marks after values point to notes of the source that are not given here."}
{"smiles": "C[C@]12CCC(=O)C=C1CC[C@@H]1[C@@H]2CC[C@@]2(C)[C@H]1CC[C@]2(C)O", "note": "[17-alpha-Methyltestosterone]", "values": [{"measurement": "Mannose", "setting": "m7, male rats", "result": "1.14 *"}, {"measurement": "3,4-Dihydroxyphenylacetic acid (DOPAC)", "setting": "m7, male rats, Table 15d", "result": "0.6 *"}, {"measurement": "18-Hydroxy-11-deoxycorticosterone", "setting": "m7, male rats, Table 15d", "result": "0.35 *"}, {"measurement": "Glycerol phosphate, lipid fraction", "setting": "m7, male rats, Table 15d", "result": "0.28 *"}, {"measurement": "Homovanillic acid (HVA)", "setting": "m7, male rats, Table 15d", "result": "0.74 *"}, {"measurement": "Lysophosphatidylcholine (C18:1)", "setting": "m7, male rats, Table 15d", "result": "0.66 *"}, {"measurement": "Lysophosphatidylethanolamine (C22:5)", "setting": "m7, male rats, Table 15d", "result": "0.77 *"}, {"measurement": "Phosphate, lipid fraction", "setting": "m7, male rats, Table 15d", "result": "0.51 *"}, {"measurement": "Phosphatidylcholine (C18:0,C18:1)", "setting": "m7, male rats, Table 15d", "result": 0.78}, {"measurement": "Sphingomyelin (d18:1, C16:0)", "setting": "m7, male rats, Table 15d", "result": "0.34 *"}, {"measurement": "Sphingomyelin (d18:1,C23:0)", "setting": "m7, male rats, Table 15d", "result": "0.49 *"}, {"measurement": "Sphingomyelin (d18:1,C24:0)", "setting": "m7, male rats, Table 15d", "result": "0.46 *"}, {"measurement": "Sphingomyelin (d18:2,C18:0)", "setting": "m7, male rats, Table 15d", "result": 0.4}, {"measurement": "TAG No 02", "setting": "m7, male rats, Table 15d", "result": "0.41 *"}, {"measurement": "myo-Inositol, lipid fraction", "setting": "m7, male rats, Table 15d", "result": "0.4 *"}, {"measurement": "Cholesterol", "setting": "m7, Table 14b", "result": 0.29}, {"measurement": "Choline plasmalogen No 02", "setting": "m7, Table 14b", "result": 0.55}, {"measurement": "Lignoceric acid (C24:0)", "setting": "m7, Table 14b", "result": 0.28}, {"measurement": "Sphingomyelin (d18:1, C16:0)", "setting": "m7, Table 14b", "result": 0.34}, {"measurement": "Sphingomyelin (d18:2, C16:0)", "setting": "m7, Table 14b", "result": 0.39}, {"measurement": "erythro-Sphingosine (d18:1)", "setting": "m7, Table 14b", "result": 0.17}, {"measurement": "Mannose", "setting": "m14, male rats", "result": 1.03}, {"measurement": "3,4-Dihydroxyphenylacetic acid (DOPAC)", "setting": "m14, male rats, Table 15d", "result": "0.69 *"}, {"measurement": "18-Hydroxy-11-deoxycorticosterone", "setting": "m14, male rats, Table 15d", "result": 0.94}, {"measurement": "Glycerol phosphate, lipid fraction", "setting": "m14, male rats, Table 15d", "result": "0.63 *"}, {"measurement": "Homovanillic acid (HVA)", "setting": "m14, male rats, Table 15d", "result": "0.68 *"}, {"measurement": "Lysophosphatidylcholine (C18:1)", "setting": "m14, male rats, Table 15d", "result": "0.78 *"}, {"measurement": "Lysophosphatidylethanolamine (C22:5)", "setting": "m14, male rats, Table 15d", "result": "0.88 *"}, {"measurement": "Phosphate, lipid fraction", "setting": "m14, male rats, Table 15d", "result": "0.64 *"}, {"measurement": "Phosphatidylcholine (C18:0,C18:1)", "setting": "m14, male rats, Table 15d", "result": "0.69 *"}, {"measurement": "Sphingomyelin (d18:1, C16:0)", "setting": "m14, male rats, Table 15d", "result": "0.28 *"}, {"measurement": "Sphingomyelin (d18:1,C23:0)", "setting": "m14, male rats, Table 15d", "result": 0.76}, {"measurement": "Sphingomyelin (d18:1,C24:0)", "setting": "m14, male rats, Table 15d", "result": "0.47 *"}, {"measurement": "Sphingomyelin (d18:2,C18:0)", "setting": "m14, male rats, Table 15d", "result": "0.31 *"}, {"measurement": "TAG No 02", "setting": "m14, male rats, Table 15d", "result": "0.3 *"}, {"measurement": "myo-Inositol, lipid fraction", "setting": "m14, male rats, Table 15d", "result": "0.49 *"}, {"measurement": "Cholesterol", "setting": "m14, Table 14b", "result": 0.41}, {"measurement": "Choline plasmalogen No 02", "setting": "m14, Table 14b", "result": 0.64}, {"measurement": "Lignoceric acid (C24:0)", "setting": "m14, Table 14b", "result": 0.39}, {"measurement": "Sphingomyelin (d18:1, C16:0)", "setting": "m14, Table 14b", "result": 0.28}, {"measurement": "Sphingomyelin (d18:2, C16:0)", "setting": "m14, Table 14b", "result": 0.38}, {"measurement": "erythro-Sphingosine (d18:1)", "setting": "m14, Table 14b", "result": 0.21}, {"measurement": "Mannose", "setting": "m28, male rats", "result": "1.2 *"}, {"measurement": "3,4-Dihydroxyphenylacetic acid (DOPAC)", "setting": "m28, male rats, Table 15d", "result": 0.74}, {"measurement": "18-Hydroxy-11-deoxycorticosterone", "setting": "m28, male rats, Table 15d", "result": "0.55 *"}, {"measurement": "Glycerol phosphate, lipid fraction", "setting": "m28, male rats, Table 15d", "result": "0.47 *"}, {"measurement": "Homovanillic acid (HVA)", "setting": "m28, male rats, Table 15d", "result": 0.92}, {"measurement": "Lysophosphatidylcholine (C18:1)", "setting": "m28, male rats, Table 15d", "result": "0.73 *"}, {"measurement": "Lysophosphatidylethanolamine (C22:5)", "setting": "m28, male rats, Table 15d", "result": "0.77 *"}, {"measurement": "Phosphate, lipid fraction", "setting": "m28, male rats, Table 15d", "result": "0.6 *"}, {"measurement": "Phosphatidylcholine (C18:0,C18:1)", "setting": "m28, male rats, Table 15d", "result": "0.7 *"}, {"measurement": "Sphingomyelin (d18:1, C16:0)", "setting": "m28, male rats, Table 15d", "result": "0.27 *"}, {"measurement": "Sphingomyelin (d18:1,C23:0)", "setting": "m28, male rats, Table 15d", "result": "0.48 *"}, {"measurement": "Sphingomyelin (d18:1,C24:0)", "setting": "m28, male rats, Table 15d", "result": "0.44 *"}, {"measurement": "Sphingomyelin (d18:2,C18:0)", "setting": "m28, male rats, Table 15d", "result": "0.36 *"}, {"measurement": "TAG No 02", "setting": "m28, male rats, Table 15d", "result": "0.34 *"}, {"measurement": "myo-Inositol, lipid fraction", "setting": "m28, male rats, Table 15d", "result": "0.51 *"}, {"measurement": "Cholesterol", "setting": "m28, Table 14b", "result": 0.39}, {"measurement": "Choline plasmalogen No 02", "setting": "m28, Table 14b", "result": 0.49}, {"measurement": "Lignoceric acid (C24:0)", "setting": "m28, Table 14b", "result": 0.19}, {"measurement": "Sphingomyelin (d18:1, C16:0)", "setting": "m28, Table 14b", "result": 0.27}, {"measurement": "Sphingomyelin (d18:2, C16:0)", "setting": "m28, Table 14b", "result": 0.37}, {"measurement": "erythro-Sphingosine (d18:1)", "setting": "m28, Table 14b", "result": 0.19}]}
